In brackets after ≈: the same amount, converted by molar mass. Where a SMILES comes first, the peptide text is derived from it. Bridges are numbered along the chain shown (N, C = ends). The star is where a group is joined. Orn(α-tetramethylguanidino) = CN(C)C(=N[C@@H](CCCN)C(=O)*)N(C)C
Experiments:
[1] = test system: E. tarda; experiment: Mouse peritonitis model, bacterial counts in peritoneal fluid; type: in vivo; settings: 1 μmol/kg i.p., peritoneal fluid cells 24 h after treatment
Procedure: The mice were intraperitoneally infected with E. tarda (1 × 10^9 CFU/mL, 0.5 mL) and then injected with N6NH2 and GUON6NH2 (1 μmol/kg) or PBS (the blank control) in the same way at 1 h after infection. The mice were then killed at 24 h after treatment, and peritoneal fluids were obtained by washing with 5 mL of ice-cold PBS. The total number of E. tarda in the fluids was determined before any further procedures. For intracellular bacteria quantification, the other fraction was centrifuged for 5 min at 4°C (1,000 rpm). The cells were collected, treated with 1,000 μg/mL gentamicin for 30 min at 37°C to kill extracellular bacteria, and washed with ice-cold PBS twice to remove extracellular gentamicin. Subsequently, the cells were lysed and the bacteria were counted as described above for the in vitro experiment ([Kim et al., 2011]).

[2] = test system: Gram-negative and Gram-positive bacteria (ALL); experiment: Geometric mean of MICs and therapeutic index; type: cell-based; settings: for GM ALL: geometric mean (GM) of MICs, all strains; for TI ALL: therapeutic index (TI), cell selectivity
Procedure: (§1) The antimicrobial activity of peptides was determined by the microbroth dilution method ([Zhang et al., 2014]). The bacterial strains were incubated in Mueller-Hinton (MH) medium at 28°C or 37°C overnight. Bacteria (1 × 10^5 CFU/mL) were added into 96-well plates, followed by the addition of serial dilutions of peptides (from 0.0625 to 128 μg/mL). The plates were incubated at 37°C for 18–24 h. The minimal inhibitory concentration (MIC) value was determined as the lowest peptide concentration at which no bacterial growth was observed.
(§2) The geometric mean (GM) of MICs of peptides against Gram-negative and Gram-positive bacteria was calculated, and the result was shown in Table 3. […] For Gram-negative bacteria, the TI value of GUON6NH2 (53.33) was very close to N6NH2 (58.18), while for positive bacteria, the TI value of GUON6NH2 (12.8) was slightly higher than that of N6NH2 (12.31), indicating their huge therapeutic potential. For Gram-positive bacteria, DN6NH2 had the highest TI value and the best therapeutic potential.

[3] = test system: Gram-positive bacteria; experiment: Geometric mean of MICs and therapeutic index; type: cell-based; settings: for GM Gram-positive bacteria: geometric mean (GM) of MICs against Gram-positive bacteria; for TI Gram-positive bacteria: therapeutic index (TI), cell selectivity
Procedure: as §1, §2

[4] = test system: Gram-negative bacteria; experiment: Geometric mean of MICs and therapeutic index; type: cell-based; settings: for GM Gram-negative bacteria: geometric mean (GM) of MICs against Gram-negative bacteria; for TI Gram-negative bacteria: therapeutic index (TI), cell selectivity
Procedure: as §1, §2

[5] = test system: S. typhimurium ATCC14028; type: cell-based, Salmonella typhimurium
Procedure: as §1

[6] = test system: inner membrane of E. tarda; experiment: Inner membrane penetration, PI staining by flow cytometry; type: cell-based, Edwardsiella tarda; settings: 1× MIC, 5–30 min at 37°C, 1 × 10^8 CFU/mL
Procedure: Mid-log phase E. tarda cells (1 × 10^8 CFU/mL) were incubated with or without 1× MIC peptides solutions at 37°C for 5, 15, and 30 min, respectively. After washing twice with PBS, bacterial cells were then incubated with 50 μg/mL propidium iodide (PI) for 15 min and analyzed using a FACS Calibur Flow Cytometer (BD, United States) ([Stearns-Kurosawa et al., 2011]).

[7] = test system: E. tarda; experiment: Post-antibiotic effect (PAE); type: cell-based, Edwardsiella tarda; settings: 4× MIC
[8] = test system: S. pullorum CVCC1789; type: cell-based, Salmonella pullorum
Procedure: as §1

[9] = test system: LPS; experiment: LPS binding, BODIPY-TR-cadaverine (BC) probe displacement; settings: 0.5 μM LPS, 5 μM BC, Tris buffer pH 7.4; peptides 0.049 to 50 μM
Procedure: The BODIPY’-TR-cadaverine (BC) probe was used to determine the ability of peptides to bind to LPS ([Wang et al., 2020]). 0.5 μM LPS was incubated with 5 μM BC in […] Tris buffer (pH 7.4) for 4 h at 37°C. Subsequently, the peptides were added into the mixture and the final concentrations of peptides ranged from 0.049 to 50 μM. Ampicillin was used as the negative control. Changes in fluorescence were measured by a fluorescence spectrophotometry at room temperature (excitation/emission, 580/620 nm).

[10] = test system: E. tarda; experiment: Time-killing curve; type: cell-based, Edwardsiella tarda; settings: 2× or 4× MIC, MHB, 1 × 10^5 CFU/mL, 28°C
Procedure: Time-killing curve of peptides was performed according to the previous method ([Flamm et al., 2019]). E. tarda was cultured to logarithmic phase, diluted in Mueller Hinton broth (MHB) (1 × 10^5 CFU/mL) containing 1×, 2×, or 4× MIC of peptides, and cultured at 28°C (200 rpm). PBS was added as a control. Bacterial samples (100 μL) were removed at different time intervals (0, 0.5, 1, 1.5, 2, 4, 6, 8, 10, 12, 22, and 24 h) and were counted on MH solid plates. The time-killing curves of peptides were plotted. Bacterial cells treated with 2× MIC norfloxacin and without treatment were used as the positive and blank controls, respectively.

[11] = type: cell-based, Streptococcus enteritidis
Procedure: as §1

[12] = test system: murine erythrocytes; type: cell-based, mouse
Procedure: The hemolysis of peptides was evaluated by determining the amount of hemoglobin that was released from fresh mouse erythrocytes ([Flamm et al., 2019]). The blood cells were washed three times with 10 mM PBS (pH 7.4) and centrifuged for 10 min (1,500 rpm). Erythrocyte solution (8%, v/v) was mixed with peptide solutions (1:1) and incubated for 1 h at 37°C. The mixture was then centrifuged for 5 min (1,500 rpm), and the absorbance of supernatants was measured at 540 nm. Values of 0 and 100% hemolysis were determined in PBS and 0.1% triton X-100, respectively. The hemolysis of peptides was calculated using the following formula: Hemolysis (%) = [(Abs treated sample – Abs negative control)/(Abs positive control – Abs negative control)] × 100.

SMILES	reduction of intracellular bacteria [1]	GM ALL [2]	TI ALL [2]	GM Gram-positive bacteria [3]	TI Gram-positive bacteria [3]	GM Gram-negative bacteria [4]	TI Gram-negative bacteria [4]	MIC [5]	penetration rate (PI-stained cells) [6]	PAE, times longer than that of norfloxacin [7]	MIC [8]	ability to bind to LPS (BC probe displacement) [9]	time to completely kill E. tarda [10]	MIC [11]	MHC [12]	cytotoxicity and hemolysis ([12]; red cells of mouse, 1 h)
CC(C)[C@@H]1NC(=O)CNC(=O)[C@H](CC(N)=O)NC(=O)[C@H](CCCNC(=N)N)NC(=O)[C@H](Cc2ccc(O)cc2)NC(=O)[C@H](C(C)C)NC(=O)[C@@H](NC(=O)[C@@H](NC(=O)[C@H](CC(N)=O)NC(=O)[C@H](Cc2c[nH]c3ccccc23)NC(=O)[C@H](C)NC(=O)[C@H](Cc2ccccc2)NC(=O)[C@H](CCCN)N=C(N(C)C)N(C)C)C(C)C)CSSC[C@@H](C(=O)N[C@@H](Cc2c[nH]cn2)C(=O)N[C@@H](CCCNC(=N)N)C(=O)N[C@@H](CCCNC(=N)N)C(=O)N[C@@H](C)C(=O)N[C@@H](CC(N)=O)C(N)=O)NC(=O)[C@H](C(C)C)NC(=O)[C@H](CCCNC(=N)N)NC1=O [GUON6NH2] ({Orn(α-tetramethylguanidino)}-FAWNVCVYRNGVRVCHRRAN-NH2; disulfide 6-15)	1.97 Log10 CFU	9.87 µg/mL	25.94	20 µg/mL	12.8	4.8 µg/mL	53.33	4 µg/mL (≈ 1.52 µM)	0.78–2.84%	1.27 times	8 µg/mL (≈ 3.04 µM)	V112N6NH2 > GUON6NH2 > N6NH2 > DN6NH2 > N6PNH2	≤ 6 h	2 µg/mL (≈ 0.76 µM)	>128 µg/mL	< 1%
CC(C)[C@@H]1NC(=O)CNC(=O)[C@H](CC(N)=O)NC(=O)[C@H](CCCNC(=N)N)NC(=O)[C@H](Cc2ccc(O)cc2)NC(=O)[C@H](C(C)C)NC(=O)[C@@H](NC(=O)[C@@H](NC(=O)[C@H](CC(N)=O)NC(=O)[C@H](Cc2c[nH]c3ccccc23)NC(=O)[C@H](C)NC(=O)[C@H](Cc2ccccc2)NC(=O)CN)C(C)C)CSSC[C@@H](C(=O)N[C@@H](Cc2cnc[nH]2)C(=O)N[C@@H](CCCNC(=N)N)C(=O)N[C@@H](CCCNC(=N)N)C(=O)N[C@@H](C)C(=O)N[C@@H](CC(N)=O)C(N)=O)NC(=O)[C@H](C(C)C)NC(=O)[C@H](CCCNC(=N)N)NC1=O [N6NH2]	1.54 Log10 CFU	9.87 µg/mL	25.94	20.8 µg/mL	12.31	4.4 µg/mL	58.18	4 µg/mL (≈ 1.62 µM)	0.99–1.71%		8 µg/mL (≈ 3.23 µM)	V112N6NH2 > GUON6NH2 > N6NH2 > DN6NH2 > N6PNH2	≤ 6 h	2 µg/mL (≈ 0.808 µM)	>128 µg/mL	

Source: publication PMC7985170, “Marine Peptide-N6NH2 and Its Derivative-GUON6NH2 Have Potent Antimicrobial Activity Against Intracellular Edwardsiella tarda in vitro and in vivo” (Frontiers in Microbiology, 2021)
